# Test results as given in patent publication US10239873B2, “7-azaindole or 4,7-diazaindole derivatives as IKKϵ epsilon and TBK1 inhibitor and pharmaceutical composition comprising same” (GREEN CROSS CORPORATION, priority 2015, dated 2019).
# Molecular target: T1, TBK1 (Homo sapiens, UniProt Q9UHD2)
# T1 construct: purchased Promega (Invitrogen is also named in the same bracket) V4158; PR8031B; V3991 (not assigned to the two kinases)
# T1 sequence (Q9UHD2 1-729): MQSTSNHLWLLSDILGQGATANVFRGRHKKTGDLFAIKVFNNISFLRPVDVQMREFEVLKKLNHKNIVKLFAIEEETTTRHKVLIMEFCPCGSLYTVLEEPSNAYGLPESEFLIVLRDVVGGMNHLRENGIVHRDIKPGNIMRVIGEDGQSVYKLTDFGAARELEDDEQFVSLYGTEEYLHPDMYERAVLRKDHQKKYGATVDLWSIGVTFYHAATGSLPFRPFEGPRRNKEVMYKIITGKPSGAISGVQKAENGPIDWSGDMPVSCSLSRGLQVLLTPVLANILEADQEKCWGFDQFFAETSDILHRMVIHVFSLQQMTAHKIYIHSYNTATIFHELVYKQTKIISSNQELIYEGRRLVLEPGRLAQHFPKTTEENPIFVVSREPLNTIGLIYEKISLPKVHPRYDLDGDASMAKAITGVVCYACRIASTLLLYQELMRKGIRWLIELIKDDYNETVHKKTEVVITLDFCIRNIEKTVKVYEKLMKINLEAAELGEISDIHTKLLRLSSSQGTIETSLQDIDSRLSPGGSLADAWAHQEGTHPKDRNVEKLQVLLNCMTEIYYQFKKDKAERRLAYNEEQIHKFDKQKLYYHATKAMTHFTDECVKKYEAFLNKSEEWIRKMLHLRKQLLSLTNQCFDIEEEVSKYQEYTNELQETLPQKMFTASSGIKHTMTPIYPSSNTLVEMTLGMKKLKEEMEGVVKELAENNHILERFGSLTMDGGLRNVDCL
# Assay: ADP-Glo Kinase Assay, inhibition activity on TBK1
# Type: biochemical
# Method: Inhibition activities on IKKϵ and TBK1 were evaluated using the compounds of Examples 1 to 250.
# The inhibition activities on IKKϵ and TBK1 were measured by a luminometer, IKKϵ/TBK1 Kinase Enzyme System (Promega, Ca# V4158; Invitrogen, PR8031B, Promega, Ca# V3991) and ADP-Glo Kinase Assay using ADP-Glo™ Kinase Analysis Kit (Promega, Ca# V9101) and a kinase reaction buffer [40 mM Tris(pH 7.5), 20 mM MgCl2, 0.1 mg/mL BSA] in accordance with the manufacturer's protocol.
row,IC50 [µM],Structure (SMILES)
1,0.00073,"CC(C)NC(=O)N1CC=C(c2c[nH]c3ncc(-c4ccc(CN5CCOCC5)s4)cc23)CC1 [Example 34, N-isopropyl-4-(5-(5-(morpholinomethyl)thiophen-2-yl)-1H-pyrrolo[2,3-b]pyridin-3-yl)-5,6-dihydropyridine-1(2H)-carboxamide]"
2,0.0055,"CCC(C)NC(=O)N1CC=C(c2c[nH]c3ncc(-c4ccc(CN5CCOCC5)s4)cc23)CC1 (centres unmarked) [Example 43, N-(sec-butyl)-4-(5-(5-(morpholinomethyl)thiophen-2-yl)-1H-pyrrolo[2,3-b]pyridin-3-yl)-5,6-dihydropyridine-1(2H)-carboxamide]"
3,0.0075,"CCC(C)NC(=O)N1CC=C(c2c[nH]c3ncc(-c4ccc(OC)c(OC)c4)cc23)CC1 (centres unmarked) [Example 44, N-(sec-butyl)-4-(5-(3,4-dimethoxyphenyl)-1H-pyrrolo[2,3-b]pyridin-3-yl)-5,6-dihydropyridine-1(2H)-carboxamide]"
4,0.032,"COc1ccc(-c2cnc3[nH]cc(C4=CCN(C(=O)NC5CCCC5)CC4)c3c2)cc1OC [Example 49, N-cyclopentyl-4-(5-(3,4-dimethoxyphenyl)-1H-pyrrolo[2,3-b]pyridin-3-yl)-5,6-dihydropyridine-1(2H)-carboxamide]"
5,0.051,"CS(=O)(=O)c1ccc(-c2cnc3[nH]cc(C4=CCN(C(=O)NC5CCCC5)CC4)c3c2)cc1 [Example 51, N-cyclopentyl-4-(5-(4-(methylsulfonyl)phenyl)-1H-pyrrolo[2,3-b]pyridin-3-yl)-5,6-dihydropyridine-1(2H)-carboxamide]"
6,0.066,"CCS(=O)(=O)c1ccc(-c2cnc3[nH]cc(C4=CCN(C(=O)NC5CCCC5)CC4)c3c2)cc1 [Example 53, N-cyclopentyl-4-(5-(4-(ethylsulfonyl)phenyl)-1H-pyrrolo[2,3-b]pyridin-3-yl)-3,6-dihydropyridine-1(2H)-carboxamide]"
7,0.031,"NS(=O)(=O)c1cccc(-c2cnc3[nH]cc(C4=CCN(C(=O)NC5CCCC5)CC4)c3c2)c1 [Example 57, N-cyclopentyl-4-(5-(3-sulfamoylphenyl)-1H-pyrrolo[2,3-b]pyridin-3-yl)-5,6-dihydropyridine-1(2H)-carboxamide]"
8,0.061,"NS(=O)(=O)c1ccc(-c2cnc3[nH]cc(C4=CCN(C(=O)NC5CCCC5)CC4)c3c2)cc1 [Example 58, N-cyclopentyl-4-(5-(4-sulfamoylphenyl)-1H-pyrrolo[2,3-b]pyridin-3-yl)-5,6-dihydropyridine-1(2H)-carboxamide]"
9,0.03,"CNS(=O)(=O)c1cccc(-c2cnc3[nH]cc(C4=CCN(C(=O)NC5CCCC5)CC4)c3c2)c1 [Example 59, N-cyclopentyl-4-(5-(3-(N-methylsulfamoyl)phenyl)-1H-pyrrolo[2,3-b]pyridin-3-yl)-5,6-dihydropyridine-1(2H)-carboxamide]"
10,0.038,"CNS(=O)(=O)c1ccc(-c2cnc3[nH]cc(C4=CCN(C(=O)NC5CCCC5)CC4)c3c2)cc1 [Example 60, N-cyclopentyl-4-(5-(4-(N-methylsulfamoyl)phenyl)-1H-pyrrolo[2,3-b]pyridin-3-yl)-5,6-dihydropyridine-1(2H)-carboxamide]"
11,0.086,"O=C(NC1CCCC1)N1CC=C(c2c[nH]c3ncc(-c4ccc(S(=O)(=O)N5CCOCC5)cc4)cc23)CC1 [Example 61, N-cyclopentyl-4-(5-(4-(morpholinosulfonyl)phenyl)-1H-pyrrolo[2,3-b]pyridin-3-yl)-5,6-dihydropyridine-1(2H)-carboxamide]"
12,0.091,"O=C(NC1CCCC1)N1CC=C(c2c[nH]c3ncc(-c4cccc(S(=O)(=O)N5CCOCC5)c4)cc23)CC1 [Example 62, N-cyclopentyl-4-(5-(3-(morpholinosulfonyl)phenyl)-1H-pyrrolo[2,3-b]pyridin-3-yl)-5,6-dihydropyridine-1(2H)-carboxamide]"
13,0.11,"O=C(NC1CCCC1)N1CC=C(c2c[nH]c3ncc(-c4ccc(CCN5CCOCC5)cc4)cc23)CC1 [Example 64, N-cyclopentyl-4-(5-(4-(2-morpholinoethyl)phenyl)-1H-pyrrolo[2,3-b]pyridin-3-yl)-5,6-dihydropyridine-1(2H)-carboxamide]"
14,1.9,"CC(=O)Nc1ccc(N)c(-c2cnc3[nH]cc(C4=CCN(C(=O)NC5CCCC5)CC4)c3c2)c1 [Example 65, 4-(5-(5-Acetamido-2-aminophenyl)-1H-pyrrolo[2,3-b]pyridin-3-yl)-N-cyclopentyl-5,6-dihydropyridine-1(2H)-carboxamide]"
15,0.25,"O=C(NCc1ccco1)c1ccc(-c2cnc3[nH]cc(C4=CCN(C(=O)NC5CCCC5)CC4)c3c2)cc1 [Example 66, N-cyclopentyl-4-(5-(4-((furan-2-ylmethyl)carbamoyl)phenyl)-1H-pyrrolo[2,3-b]pyridin-3-yl)-5,6-dihydropyridine-1(2H)-carboxamide]"
16,0.41,"O=C(NCc1ccco1)c1cccc(-c2cnc3[nH]cc(C4=CCN(C(=O)NC5CCCC5)CC4)c3c2)c1 [Example 67, N-cyclopentyl-4-(5-(3-((furan-2-ylmethyl)carbamoyl)phenyl)-1H-pyrrolo[2,3-b]pyridin-3-yl)-5,6-dihydropyridine-1(2H)-carboxamide]"
17,0.064,"O=C(NC1CCCC1)N1CC=C(c2c[nH]c3ncc(-c4cccc(OCCN5CCOCC5)c4)cc23)CC1 [Example 68, N-cyclopentyl-4-(5-(3-(2-morpholinoethoxy)phenyl)-1H-pyrrolo[2,3-b]pyridin-3-yl)-5,6-dihydropyridine-1(2H)-carboxamide]"
18,0.065,"O=C(NC1CCCC1)N1CC=C(c2c[nH]c3ncc(-c4ccc(OCCN5CCOCC5)cc4)cc23)CC1 [Example 69, N-cyclopentyl-4-(5-(4-(2-morpholinoethoxy)phenyl)-1H-pyrrolo[2,3-b]pyridin-3-yl)-5,6-dihydropyridine-1(2H)-carboxamide]"
19,0.4,"O=C(NC1CCCC1)N1CC=C(c2c[nH]c3ncc(-c4ccc(OCCCN5CCOCC5)cc4)cc23)CC1 [Example 70, N-cyclopentyl-4-(5-(4-(3-morpholinopropoxy)phenyl)-1H-pyrrolo[2,3-b]pyridin-3-yl)-5,6-dihydropyridine-1(2H)-carboxamide]"
20,0.005,"CN1CCN(Cc2ccc(-c3cnc4[nH]cc(C5=CCN(C(=O)NC6CCCC6)CC5)c4c3)s2)CC1 [Example 71, N-cyclopentyl-4-(5-(5-((4-methylpiperazin-1-yl)methyl)thiophen-2-yl)-1H-pyrrolo[2,3-b]pyridin-3-yl)-5,6-dihydropyridine-1(2H)-carboxamide]"
21,0.62,"O=C(NC1CCCC1)N1CC=C(c2c[nH]c3ncc(-c4csc(CN5CCOCC5)c4)cc23)CC1 [Example 73, N-cyclopentyl-4-(5-(5-(morpholinomethyl)thiophen-3-yl)-1H-pyrrolo[2,3-b]pyridin-3-yl)-5,6-dihydropyridine-1(2H)-carboxamide]"
22,0.053,"O=C(NC1CCCC1)N1CC=C(c2c[nH]c3ncc(-c4ccc(C(=O)N5CCOCC5)s4)cc23)CC1 [Example 74, N-cyclopentyl-4-(5-(5-(morpholine-4-carbonyl)thiophen-2-yl)-1H-pyrrolo[2,3-b]pyridin-3-yl)-5,6-dihydropyridine-1(2H)-carboxamide]"
23,0.025,"O=C(NC1CCCC1)N1CC=C(c2c[nH]c3ncc(-c4ccc(C(=O)N5CCOCC5)cc4)cc23)CC1 [Example 75, N-cyclopentyl-4-(5-(4-(morpholine-4-carbonyl)phenyl)-1H-pyrrolo[2,3-b]pyridin-3-yl)-5,6-dihydropyridine-1(2H)-carboxamide]"
